# Test results as given in US10220033B2, “Substituted benzoxazepine for cancer therapy” (University of Cape Town, priority 2014, dated 2019).
# Legend:
# [1] = tested on: p65/NFκB transcriptional activity in CaSki cells; test: p65 luciferase reporter assay; type: cell-based; conditions: 10 or 15 μM, 24 hours (FIG. 15)
# Protocol: To assay for AP-1 and p65 luciferase activities, 40 000 CaSki cells were plated in 24-well plates, and transfected with 50 ng of an API luciferase reporter (containing four copies of the AP-1 binding site) or 50 ng of a p65 luciferase reporter (containing five copies of the p65 binding site, Clontech, CA, USA) and 5 ng pRL-TK (encoding Renilla luciferase, Promega), using 0.16 μl TransFectin™ lipid reagent (Bio-Rad, Hercules, Calif., USA). The following day cells were treated with 10 or 15 μM Compound A. Luciferase activity was measured 24 hours after Compound A treatment using the Dual-LuciferaseR Reporter assay system (Promega, Madison, Wis., USA), according to the manufacturers' instructions. Luciferase readings were measured using the Veritas™ microplate luminometer (Promega) and luciferase readings were normalised to Renilla luciferase in the same extract.
# [2] = tested on: CaSki, HeLa, KYSE30 and WHCO6 cancer cells; test: Cell proliferation assay (MTT), cancer cells; type: cell-based
# Protocol: To assay for cell proliferation after Compound A treatment, 5000 cells/well were plated in 96-well plates and treated with 5, 10 or 15 μM Compound A, after which cell proliferation was monitored every 24 hours for four days, using MTT.
# This effect was sustained for the full 5 day time period, confirming that there was no population of cells that recovered from the treatment.
# Solubility = type: physicochemical; conditions: in dimethylsulfoxide (DMSO)
compound,measurement,setting,value
"CN(C)CCCn1c(N)c(-c2nc3ccccc3[nH]2)c2nc3ccccc3nc21 [Compound A, 3-(1H-benzimidazol-2-yl)-1-(3-dimethylaminopropyl)pyrrolo[5,4-b]quinoxalin-2-amine]",p65 luciferase activity,[1],decreased in a dose-dependent manner
same,cell death,[2]; 10 μM (FIG. 22),100%
same,cell death in proliferation assay,"[2]; 10 and 15 μM, within 24 hour (FIG. 21 A-D)",complete cell death
same,solubility,Solubility,soluble
